Test results as given in patent US20250026765A1, “SPIROHETEROCYCLE DERIVATIVE HAVING SEROTONIN RECEPTOR BINDING ACTIVITY” (Shionogi & Co., Ltd., priority 2021, published 2025).
Read-outs that look alike come from different tables or passages of the source.

Assays:
[1] = molecular target: human recombinant 5-HT2A receptor (Homo sapiens (Human), UniProt P28223); test: 5-HT2A receptor binding inhibition test ([3H]-Ketanserin); conditions: Jump-In HEK cell membrane, 25° C. 1.5 hours
Procedure: Test Example 1: 5-HT2A Receptor Binding Inhibition Test
(§1) (Each Experimental Condition)
Cell membrane: 15 μg of Jump-In HEK cell membrane (expressing human recombinant 5-HT2A receptor) per well
(§2) Assay buffer: Tris-HCl 50 mmol/L (pH 7.4) containing NaCl 120 mmol/L, MgCl2·6H2O 1 mmol/L, KCl 5 mmol/L, 0.1% BSA and CaCl2 2 mmol/L
Radioactive ligand: [^3H]-Ketanserin with a final concentration of around Kd value calculated by the following method
Non-specific ligand: Serotonin HCl with a final concentration of 500 μmol/L
(§3) The Kd value is calculated when the lot of cell membrane is changed. In advance, 0.5 μL of a 1 mmol/L compound for non-specific binding calculation dissolved in DMSO or DMSO is dispensed into a microplate, and the cell membrane is diluted with an Assay buffer. The radioactive ligand solution is serially diluted and the count is confirmed with a liquid scintillator. Assay buffer containing diluted cell membrane is dispensed into a microplate at 50 μL/well. Then, the radioactive ligand solution is dispensed into a microplate at 50 μL/well, and the plate is sealed. It is allowed to stand at room temperature (25° C.) for 1.5 hours. During this period, 50 mmol/L Tris-HCl (pH 7.4) is dispensed into a GF/B UniFilter plate at 50 μL/well and allowed to stand at 4° C. for 1 hour or longer. After that, filtration is performed with Cell harvester (PerkinElmer). The radioactive ligand solution is dispensed into an empty well of the GF/B UniFilter plate at 10 μL/well. After the GF/B UniFilter plate is dried at room temperature, MicroScinti 20 is dispensed into the GF/B UniFilter plate at 50 μL/well to seal the plate. The GF/B UniFilter plate is allowed to stand overnight at room temperature. The radioactivity of [^3H]-Ketanserin bound to the 5-HT2A receptor is measured using Microbeta2 (PerkinElmer) at a measurement time of 1 min/well. The Saturation curve is drawn from the measured value, and the Kd value is calculated from the slope of the Scatchard Plot.
(§4) (Binding Test of the Compound According to the Present Invention)
In advance, 0.5 μL of the compound solution dissolved in DMSO is dispensed into a microplate, and the cell membrane and the hot ligand are diluted with Assay buffer, respectively. Then, the Assay buffer containing the diluted cell membrane is dispensed into a microplate at 50 μL/well. Then, the radioactive ligand solution is dispensed into a microplate at 50 μL/well, and the plate is sealed. Then, it is allowed to stand at room temperature (25° C.) for 1.5 hours. During this period, 50 mmol/L Tris-HCl (pH 7.4) is dispensed into a GF/B UniFilter plate at 50 μL/well and allowed to stand at 4° C. for 1 hour or longer. After that, filtration is performed with Cell harvester (PerkinElmer). After the GF/B UniFilter plate is dried at room temperature, MicroScinti 20 is dispensed into the GF/B UniFilter plate at 50 μL/well to seal the plate. The GF/B UniFilter plate is allowed to stand overnight at room temperature. The radioactivity of [^3H]-Ketanserin bound to the 5-HT2A receptor is measured using Microbeta2 (PerkinElmer) at a measurement time of 1 min/well. The non-specific binding is calculated from the radioactivity of [^3H]-Ketanserin in the presence of 500 μmol/L Serotonin HCl which is the unlabeled ligand, and the total binding is calculated from the radioactivity of [^3H]-Ketanserin in the absence of the compound according to the present invention (Vehicle). Finally, the Ki value is calculated from the dose-response curve.
(§5) (The binding activity of the compound according to the present invention is calculated from the following binding inhibition rate (%).)
(§6) [formula] • a; mean cpm of non-specific binding • b; average cpm of total binding • c; cpm in the presence of the test compound

[2] = molecular target: human recombinant 5-HT2C receptor (Homo sapiens (Human), UniProt P28335); test: 5-HT2C receptor binding inhibition test ([3H]-Mesulergine); conditions: Jump-In HEK cell membrane, 37° C. 2 hours
human recombinant 5-HT2C receptor, sequence (P28335 33-458): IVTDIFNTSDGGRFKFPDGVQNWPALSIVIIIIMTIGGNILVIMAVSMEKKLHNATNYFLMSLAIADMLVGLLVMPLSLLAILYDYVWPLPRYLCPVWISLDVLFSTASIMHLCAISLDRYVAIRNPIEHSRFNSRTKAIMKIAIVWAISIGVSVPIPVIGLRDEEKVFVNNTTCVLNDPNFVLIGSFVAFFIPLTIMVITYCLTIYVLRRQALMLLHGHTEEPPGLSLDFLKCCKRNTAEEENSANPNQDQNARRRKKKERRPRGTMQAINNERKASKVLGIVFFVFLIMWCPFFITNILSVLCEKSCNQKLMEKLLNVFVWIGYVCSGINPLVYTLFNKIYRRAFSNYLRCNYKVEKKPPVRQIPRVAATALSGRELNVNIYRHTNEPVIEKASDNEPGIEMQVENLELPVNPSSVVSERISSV
Procedure: Test Example 2: 5-HT2C Receptor Binding Inhibition Test
as §1
Cell membrane: 0.5 μg of Jump-In HEK cell membrane (expressing human recombinant 5-HT2C receptor) per well
as §2
Radioactive ligand: [^3H]-Mesulergine with a final concentration of around Kd value calculated by the following method
Non-specific ligand: Serotonin HCl with a final concentration of […]
as §3, with “37° C.” for “room temperature (25° C.)”, “2” for “1.5”, “[^3H]-Mesulergine” for “[^3H]-Ketanserin”, “5-HT2C” for “5-HT2A”
as §4
In advance, 0.5 μL of the compound solution dissolved in DMSO is dispensed into a microplate, and the cell membrane and the hot ligand are diluted with Assay buffer, respectively. Then, the Assay buffer containing the diluted cell membrane is dispensed into a microplate at 50 μL/well. Then, the radioactive ligand solution is dispensed into a microplate at 50 μL/well, and the plate is sealed. Then, it is allowed to stand at 37° C. for 2 hours. During this period, 50 mmol/L Tris-HCl (pH 7.4) is dispensed into a GF/B UniFilter plate at 50 μL/well and allowed to stand at 4° C. for 1 hour or longer. After that, filtration is performed with Cell harvester (PerkinElmer). After the GF/B UniFilter plate is dried at room temperature, MicroScinti 20 is dispensed into the GF/B UniFilter plate at 50 μL/well, and the plate is sealed. The GF/B UniFilter plate is allowed to stand overnight at room temperature. The radioactivity of [^3H]-Mesulergine bound to the 5-HT2C receptor is measured using Microbeta2 (PerkinElmer) at a measurement time of 1 min/well. The non-specific binding is calculated from the radioactivity of […] in the presence of 500 μmol/L Serotonin HCl which is the unlabeled ligand, and the total binding is calculated from the radioactivity of [^3H]-Mesulergine in the absence of the compound according to the present invention (Vehicle). Finally, the Ki value is calculated from the dose-response curve.
as §5, §6

[3] = read-out: human serotonin 5-HT2A receptor binding activity Ki
[4] = read-out: human serotonin 5-HT2C receptor binding activity Ki

human recombinant 5-HT2A receptor, sequence (P28223 whole entry): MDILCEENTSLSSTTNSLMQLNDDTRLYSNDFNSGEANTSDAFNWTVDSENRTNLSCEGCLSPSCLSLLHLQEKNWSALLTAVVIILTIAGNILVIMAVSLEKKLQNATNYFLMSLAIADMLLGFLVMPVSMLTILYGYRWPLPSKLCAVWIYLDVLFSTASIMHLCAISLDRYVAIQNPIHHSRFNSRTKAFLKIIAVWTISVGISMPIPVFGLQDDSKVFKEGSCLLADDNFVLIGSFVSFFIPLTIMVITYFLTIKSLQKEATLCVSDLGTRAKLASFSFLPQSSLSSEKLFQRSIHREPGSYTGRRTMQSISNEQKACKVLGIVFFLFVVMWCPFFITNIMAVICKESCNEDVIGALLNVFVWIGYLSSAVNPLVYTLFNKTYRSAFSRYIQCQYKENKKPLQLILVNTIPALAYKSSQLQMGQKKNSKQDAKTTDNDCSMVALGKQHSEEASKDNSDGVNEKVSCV

Ki [1, 3]	Ki [2, 4]	SMILES	Ki ([1]; read-out: h-5-HT2A Ki)	Ki ([2]; read-out: h-5-HT2C Ki)
5.2 nM	2.19 nM	Cc1nc(CN(Cc2ccc(OCC(C)C)cc2)C2=NC(=O)C3(CCN(C)CC3)N2)cs1 [Compound I-057]	–	–
1.11 nM	0.787 nM	CCCc1ccc(CN(Cc2coc(C)n2)C2=NOC3(CCN(C)CC3)N2)cc1 [Compound I-087]	–	–

Continued, molecule first:

SMILES	Ki [1, 3]	Ki [2, 4]	Ki ([1]; read-out: h-5-HT2A Ki)	Ki ([2]; read-out: h-5-HT2C Ki)
CC(C)COc1ccc(CN(Cc2ccc(F)cc2)C2=NOC3(CCN(C)CC3)N2)cc1 [Compound I-055]	–	–	< 10 nM	10 to 100 nM
Cc1cc(CN(Cc2ccc(OCC(C)C)cc2)C2=NC(=O)C3(CCN(C)CC3)N2)nn1C [Compound I-058]	–	–	10 to 100 nM	100 to 500 nM
Cc1cnc(CN(Cc2ccc(OCC(C)C)cc2)C2=NC(=O)C3(CCN(C)CC3)N2)nc1 [Compound I-061]	–	–	10 to 100 nM	10 to 100 nM
Cc1ccc(CN(Cc2ccc(OCC(C)C)cc2)C2=NC(=O)C3(CCN(C)CC3)N2)nc1 [Compound I-062]	–	–	< 10 nM	10 to 100 nM
CC(C)COc1ccc(CN(Cc2ccco2)C2=NC(=O)C3(CCN(C)CC3)N2)cc1 [Compound I-063]	–	–	< 10 nM	10 to 100 nM
Cc1nc(CN(Cc2ccc(OCC(F)(F)C(F)F)cc2)C2=NOC3(CCN(C)CC3)N2)co1 [Compound I-064]	–	–	< 10 nM	< 10 nM
Cc1nc(CN(Cc2ccc(OCC(C)(F)F)cc2)C2=NOC3(CCN(C)CC3)N2)co1 [Compound I-065]	–	–	< 10 nM	< 10 nM
Cc1nc(CN(Cc2ccc(OCC(F)F)cc2)C2=NOC3(CCN(C)CC3)N2)co1 [Compound I-066]	–	–	< 10 nM	< 10 nM
CCc1nc(CN(Cc2ccc(OCC(C)C)cc2)C2=NOC3(CCN(C)CC3)N2)co1 [Compound I-068]	–	–	< 10 nM	< 10 nM
Cc1nc(CN(Cc2cccs2)C2=NOC3(CCN(C)CC3)N2)co1 [Compound I-069]	–	–	10 to 100 nM	< 10 nM
Cc1cc(CN(Cc2ccc(OCC(C)C)cc2)C2=NOC3(CCN(C)CC3)N2)co1 [Compound I-070]	–	–	< 10 nM	< 10 nM
CC(C)COc1ccc(CN(Cc2cnn(C)n2)C2=NOC3(CCN(C)CC3)N2)cc1 [Compound I-072]	–	–	< 10 nM	< 10 nM
Cc1nc(CN(Cc2ccsc2)C2=NOC3(CCN(C)CC3)N2)co1 [Compound I-073]	–	–	10 to 100 nM	< 10 nM
Cc1cc(CN(Cc2ccc(OCC(C)C)cc2)C2=NOC3(CCN(C)CC3)N2)no1 [Compound I-075]	–	–	< 10 nM	100 to 500 nM
Cc1cc(CN(Cc2ccc(OCC(C)C)cc2)C2=NOC3(CCN(C)CC3)N2)on1 [Compound I-076]	–	–	10 to 100 nM	100 to 500 nM
CCCCc1ccc(CN(Cc2coc(C)n2)C2=NOC3(CCN(C)CC3)N2)cc1 [Compound I-077]	–	–	< 10 nM	< 10 nM
Cc1ccc(CN(Cc2ccc(OCC(C)C)cc2)C2=NOC3(CCNCC3)N2)cn1 [Compound I-078]	–	–	< 10 nM	100 to 500 nM
Cc1nc(CN(Cc2ccc(OCC3CC3)cc2)C2=NOC3(CCN(C)CC3)N2)co1 [Compound I-079]	–	–	< 10 nM	< 10 nM
Cc1ccc(CN(Cc2ccc(OCC(C)C)cc2)C2=NOC3(CCN(C)CC3)N2)cn1 [Compound I-081]	–	–	< 10 nM	100 to 500 nM
Cc1nc(CN(Cc2ccc(OCC(F)(F)C(F)(F)F)cc2)C2=NOC3(CCN(C)CC3)N2)co1 [Compound I-082]	–	–	< 10 nM	< 10 nM
Cc1nc(CN(Cc2ccc(OCC3CCC3)cc2)C2=NOC3(CCN(C)CC3)N2)co1 [Compound I-083]	–	–	< 10 nM	< 10 nM
Cc1nc(CN(Cc2ccc(OCC3CC(F)(F)C3)cc2)C2=NOC3(CCN(C)CC3)N2)co1 [Compound I-084]	–	–	< 10 nM	< 10 nM
CN1CCC2(CC1)NC(N(Cc1ccc(OCC(F)(F)F)cc1)Cc1coc(C3CC3)n1)=NO2 [Compound I-086]	–	–	< 10 nM	< 10 nM
COc1ccc2oc(CN(Cc3coc(C)n3)C3=NOC4(CCN(C)CC4)N3)nc2c1 [Compound I-088]	–	–	10 to 100 nM	10 to 100 nM
